Experimental data reported in patent US20090143279A1 (priority 2007, published 2009).
Like-named read-outs stand apart in the source and are kept apart here.

Experiments:
C2C12 myotubes = conditions: for Viability (composite Z-score): normalized score vs mock-treated (DMSO) wells
OXPHOS gene expression = type: cell-based, mouse; conditions: Conc 20 μM; for GE-HTS (composite Z-score): normalized score vs mock-treated (DMSO) wells
mtOXPHOS transcripts = type: cell-based, mouse; conditions: Conc 20 μM; for mitoOX (composite Z-score): normalized score vs mock-treated (DMSO) wells
[1] = system: mitochondrial membrane potential; type: cell-based, mouse; conditions: for ΔΨm (composite Z-score): normalized score vs mock-treated (DMSO) wells
[2] = system: cellular dehydrogenase activity; conditions: for MTT (composite Z-score): normalized score vs mock-treated (DMSO) wells
cytochrome c = type: cell-based, mouse; conditions: Conc 20 μM; for cyt c (composite Z-score): normalized score vs mock-treated (DMSO) wells
cytochrome c, sequence (P62897 whole entry): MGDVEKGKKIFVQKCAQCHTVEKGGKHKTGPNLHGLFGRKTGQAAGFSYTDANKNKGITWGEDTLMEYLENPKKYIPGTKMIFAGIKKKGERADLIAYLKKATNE

reactive oxygen species = type: cell-based, mouse; conditions: for ROS (composite Z-score): normalized score vs mock-treated (DMSO) wells
nuOXPHOS transcripts = type: cell-based, mouse; conditions: Conc 20 μM; for nucOX (composite Z-score): normalized score vs mock-treated (DMSO) wells
[3] = composite Z-score vs DMSO, Conc 20 μM
[4] = composite Z-score vs mock-treated (DMSO) wells, Conc 20 μM
[5] = composite Z-score vs mock-treated (DMSO) wells
[6] = normalized composite Z-score vs mock-treated (DMSO) wells, Conc 20 μM
[7] = normalized composite Z-score vs mock-treated (DMSO) wells
[8] = Table 4, C2C12 myotubes, 48 h, composite Z-score
[9] = composite Z-score vs DMSO wells, Conc 20 μM
[10] = composite Z-score vs DMSO wells

In the case of `CN[C@@H]1[C@@H](O[C@H]2O[C@H](CO)[C@@H](N)[C@H](O)[C@H]2O)OC2C[C@@H](N)[C@@H](O[C@H]3[C@H](O)[C@@H](O)[C@H](N)C[C@@H]3N)OC2[C@@H]1O` (stereo partly drawn) [apramycin], the Viability (C2C12 myotubes; [3]) is reported as −1.979, the GE-HTS (OXPHOS gene expression; composite Z-score vs DMSO) is reported as 0.477 and the mitoOX (mtOXPHOS transcripts; composite Z-score vs DMSO) is reported as 0.494. The ΔΨm [1, 3] was −0.407, the MTT [2, 3] was −0.808 and the cyt c (cytochrome c; composite Z-score vs DMSO) was 0.223. The ROS (reactive oxygen species; [3]) was −0.105 and the nucOX (nuOXPHOS transcripts; composite Z-score vs DMSO) was 0.413.

For `CC1=CCc2c(cc3oc(C)cc(=O)c3c2O)OC1` [ptaeroxylin], the Viability (C2C12 myotubes; [4]) was −0.025, the GE-HTS (OXPHOS gene expression; [5]) was −0.853 and the mitoOX (mtOXPHOS transcripts; [5]) was −0.641. It also gave a ΔΨm [1, 4] of 0.238, an MTT [2, 4] of 0.160 and a cyt c (cytochrome c; [5]) of 0.599. The ROS (reactive oxygen species; [4]) was 0.259 and the nucOX (nuOXPHOS transcripts; [5]) was −0.907.

In the case of `CCCCCC1C(=O)CCC1CC(=O)O` (stereo not drawn) [dihydrojasmonic acid], the Viability (C2C12 myotubes; [6]) is reported as −1.223, the GE-HTS (OXPHOS gene expression; [7]) is reported as −0.313 and the mitoOX (mtOXPHOS transcripts; [7]) is reported as −0.505. The ΔΨm [1, 6] was −0.294, the MTT [2, 6] was −0.149 and the cyt c (cytochrome c; [7]) was −0.847. It also gave an ROS (reactive oxygen species; [6]) of 0.827 and a nucOX (nuOXPHOS transcripts; [7]) of −0.168.

With `C=C[C@H]1C[N@@]2CC[C@H]1C[C@@H]2[C@@H](O)c1ccnc2ccc(OC)cc12` [quinidine] the Viability (C2C12 myotubes; [3]) was 0.916, the GE-HTS (OXPHOS gene expression; composite Z-score vs DMSO) was 0.849 and the mitoOX (mtOXPHOS transcripts; composite Z-score vs DMSO) was 0.501. The ΔΨm [1, 3] was 1.187, the MTT [2, 3] was −0.233 and the cyt c (cytochrome c; composite Z-score vs DMSO) was 1.286. The ROS (reactive oxygen species; [3]) was 1.326 and the nucOX (nuOXPHOS transcripts; composite Z-score vs DMSO) was 0.956.

In the case of `COc1cc2c(cc1OC)[C@@H]1C(=O)c3ccc4c(c3O[C@@H]1CO2)CC(C(C)C)O4` (stereo partly drawn) [beta-dihydrorotenone, reference compound], the Viability (C2C12 myotubes; [8]) is reported as −0.184, the Viability (C2C12 myotubes; [3]) is reported as −0.184 and the GE-HTS (OXPHOS gene expression; composite Z-score vs DMSO) is reported as −0.818. It also gave a mitoOX (mtOXPHOS transcripts; composite Z-score vs DMSO) of −0.695, a ΔΨm ([1]; Table 4, C2C12 myotubes, 48 h, JC-1, composite Z-score) of 1.079 and a ΔΨm [1, 3] of 1.079. The MTT [2, 8] was −2.771, the MTT [2, 3] was −2.771 and the cyt c (cytochrome c; composite Z-score vs DMSO) was −0.408. The ROS (reactive oxygen species; [8]) was 0.122, the ROS (reactive oxygen species; [3]) was 0.122 and the nucOX (nuOXPHOS transcripts; composite Z-score vs DMSO) was −0.828.

`COc1cc2c(cc1OC)C1(O)C(=O)c3ccc(O)c(C(=O)O)c3OC1CO2` (stereo not drawn) showed a Viability (C2C12 myotubes; [6]) of 0.509, a GE-HTS (OXPHOS gene expression; [7]) of −0.404 and a mitoOX (mtOXPHOS transcripts; [7]) of −0.773. For the same compound, the ΔΨm [1, 6] was −0.494, the MTT [2, 6] was −0.976 and the cyt c (cytochrome c; [7]) was 0.670. It also gave an ROS (reactive oxygen species; [6]) of −0.738 and a nucOX (nuOXPHOS transcripts; [7]) of −0.162.

In the case of `CC(=O)Oc1cccc(C(=O)O)c1OC(C)=O` [dipyrocetyl], the “Viability (composite Z-score)” value (C2C12 myotubes; Conc 20 μM) is reported as 0.452, the “GE-HTS (composite Z-score)” value (OXPHOS gene expression) is reported as −0.311 and the “mitoOX (composite Z-score)” value (mtOXPHOS transcripts) is reported as −0.341. The “ΔΨm (composite Z-score)” value ([1]; Conc 20 μM) was −0.363, the “MTT (composite Z-score)” value ([2]; Conc 20 μM) was −1.355 and the “cyt c (composite Z-score)” value (cytochrome c) was 0.865. For the same compound, the “ROS (composite Z-score)” value (reactive oxygen species; Conc 20 μM) was 1.260 and the “nucOX (composite Z-score)” value (nuOXPHOS transcripts) was −0.242.

In the case of `Oc1nc2cc(Cl)c(Cl)cc2nc1O` [2,3-dihydroxy-6,7-dichloroquinoxaline], the “Viability (composite Z-score)” value (C2C12 myotubes; Conc 20 μM) is reported as −0.077, the “GE-HTS (composite Z-score)” value (OXPHOS gene expression) is reported as −0.724 and the “mitoOX (composite Z-score)” value (mtOXPHOS transcripts) is reported as −0.565. For the same compound, the “ΔΨm (composite Z-score)” value ([1]; Conc 20 μM) was −1.689, the “MTT (composite Z-score)” value ([2]; Conc 20 μM) was −1.458 and the “cyt c (composite Z-score)” value (cytochrome c) was 0.279. The “ROS (composite Z-score)” value (reactive oxygen species; Conc 20 μM) was 0.085 and the “nucOX (composite Z-score)” value (nuOXPHOS transcripts) was −0.712.

mepartricin was tested, and the “Viability (composite Z-score)” value (C2C12 myotubes; Conc 20 μM) was −0.568, the “GE-HTS (composite Z-score)” value (OXPHOS gene expression) was −0.710 and the “mitoOX (composite Z-score)” value (mtOXPHOS transcripts) was −0.464. For the same compound, the “ΔΨm (composite Z-score)” value ([1]; Conc 20 μM) was −0.309, the “MTT (composite Z-score)” value ([2]; Conc 20 μM) was −1.431 and the “cyt c (composite Z-score)” value (cytochrome c) was 0.264. For the same compound, the “ROS (composite Z-score)” value (reactive oxygen species; Conc 20 μM) was −0.251 and the “nucOX (composite Z-score)” value (nuOXPHOS transcripts) was −0.728.

caryophyllene was tested, and the “Viability (composite Z-score)” value (C2C12 myotubes; Conc 20 μM) was −0.255, the “GE-HTS (composite Z-score)” value (OXPHOS gene expression) was 0.119 and the “mitoOX (composite Z-score)” value (mtOXPHOS transcripts) was −0.100. For the same compound, the “ΔΨm (composite Z-score)” value ([1]; Conc 20 μM) was 1.045, the “MTT (composite Z-score)” value ([2]; Conc 20 μM) was −0.525 and the “cyt c (composite Z-score)” value (cytochrome c) was −0.121. For the same compound, the “ROS (composite Z-score)” value (reactive oxygen species; Conc 20 μM) was 0.996 and the “nucOX (composite Z-score)” value (nuOXPHOS transcripts) was 0.216.

Compound `O[C@H]1[C@H]2c3cc4c(cc3CN3CCC(=C[C@@H]1O)[C@H]23)OCO4` [Lycorine, reference compound] has a Viability (C2C12 myotubes; [3]) of −2.922, a GE-HTS (OXPHOS gene expression; composite Z-score vs DMSO) of −1.119 and a mitoOX (mtOXPHOS transcripts; composite Z-score vs DMSO) of −5.387. The ΔΨm [1, 3] was −2.570, the MTT [2, 3] was −4.612 and the cyt c (cytochrome c; composite Z-score vs DMSO) was −1.288. The ROS (reactive oxygen species; [3]) was −2.639 and the nucOX (nuOXPHOS transcripts; composite Z-score vs DMSO) was 1.103.

`COc1ccc2c(=O)c(OC)c(-c3ccccc3)oc2c1` [3,7-dimethoxyflavone] showed a Viability (C2C12 myotubes; [6]) of −0.730, a GE-HTS (OXPHOS gene expression; [7]) of −0.945 and a mitoOX (mtOXPHOS transcripts; [7]) of −0.434. It also gave a ΔΨm [1, 6] of 0.817, an MTT [2, 6] of −1.089 and a cyt c (cytochrome c; [7]) of 0.982. It also gave an ROS (reactive oxygen species; [6]) of 0.652 and a nucOX (nuOXPHOS transcripts; [7]) of −1.084.

In the case of `O=c1[nH]c(=O)n([C@H]2C[C@H](O)[C@@H](CO)O2)cc1F` [floxuridine], the Viability (C2C12 myotubes; [9]) is reported as −0.712, the GE-HTS (OXPHOS gene expression; [10]) is reported as 0.909 and the mitoOX (mtOXPHOS transcripts; [10]) is reported as 0.539. For the same compound, the ΔΨm [1, 9] was −1.275, the MTT [2, 9] was −1.643 and the cyt c (cytochrome c; [10]) was −0.314. The ROS (reactive oxygen species; [9]) was 0.063 and the nucOX (nuOXPHOS transcripts; [10]) was 0.993.
